How the values were obtained:
Assay type in all cases: physicochemical
[1] = Stability experiments: 4-isopropenyl phenol (IPP) formation in BPA solutions by GC-MS; details: for IPP signal intensity where solvent is acetone / IPP signal intensity where solvent is phenol: BPA:solvent 6:4 by weight, GC-MS m/z=134 relative to untreated standard BPA sample
Description: BPA and a solvent were mixed to produce solutions (containing no solids) having a weight ratio of BPA to solvent of 6:4. The solvent was either acetone (present invention) or phenol (comparative). Where the solvent was acetone the solution was obtained at a temperature of 35° C. and then kept at that temperature. However, in view of the above solubility experiments, where the solvent was phenol the solution could only be obtained at a temperature of 120° C. and was then kept at that temperature. The solutions were heated for a certain time period (3, 7 or 14 days) at either 35° C. (acetone) or 120° C. (phenol). At the end of each time period, the amount of 4-isopropenyl phenol (IPP) was determined by means of GC-MS. Table 2 mentions the intensity of the GC-MS signal at m/z=134, which signal is characteristic for IPP, relative to a standard BPA sample that had not been subjected to said temperature treatment.

[2] = Extended storage of acetone/bisphenolacetone liquid mixture at storage temperature range; details: liquid mixture with acetone
[3] = Solubility experiments: BPA dissolved in acetone or phenol in oil bath at set temperature; details: weight ratio BPA to solvent 7.5/2.5
Description: 0.6 gram of bisphenolacetone (BPA) powder was placed in a 10 ml graduated tube with a thread seal. Prior to the experiment, BPA flakes were crushed to said powder to ensure uniform packing density at the bottom of the tube. Then 0.2 gram of a solvent was added to the BPA. The solvent was either acetone (present invention) or phenol (comparative). Thus, the weight ratio of BPA to solvent was 7.5/2.5. The tube was then immersed in an oil bath at a certain temperature, and mixed up to full equilibrium. The foregoing was repeated except that the temperature of the oil bath was set at different values. Table 1 mentions the amounts of BPA dissolved in either acetone or phenol at temperatures ranging from 30 to 110° C. The amount of BPA dissolved was calculated from the loss of BPA from the solids layer at the bottom of the tube.

IPP signal intensity where solvent is acetone ([1]; 3 days at 35 °C): 0.1
IPP signal intensity where solvent is phenol ([1]; 3 days at 120 °C): 14.8
IPP signal intensity where solvent is acetone ([1]; 7 days at 35 °C): 0.0
IPP signal intensity where solvent is phenol ([1]; 7 days at 120 °C): 22.3
IPP signal intensity where solvent is acetone ([1]; 14 days at 35 °C): 0.0
IPP signal intensity where solvent is phenol ([1]; 14 days at 120 °C): 35.0
thermal degradation of BPA into IPP ([1]; solvent phenol, solution kept at 120 °C): thermally degraded into IPP
bisphenolacetone and solution properties upon extended storage [2]: remain unchanged
Vol. % of BPA dissolved in acetone ([3]; 30 °C): 61 Vol. %
Vol. % of BPA dissolved in acetone ([3]; 60 °C): 72 Vol. %
Vol. % of BPA dissolved in phenol ([3]; 60 °C): 0 Vol. %
Vol. % of BPA dissolved in acetone ([3]; 75 °C): 72 Vol. %
Vol. % of BPA dissolved in phenol ([3]; 75 °C): 0 Vol. %
Vol. % of BPA dissolved in acetone ([3]; 90 °C): 74 Vol. %
Vol. % of BPA dissolved in phenol ([3]; 90 °C): 0 Vol. %
Vol. % of BPA dissolved in acetone ([3]; 110 °C): 74 Vol. %
Vol. % of BPA dissolved in phenol ([3]; 110 °C): 61 Vol. %
Compound: CC(C)(c1ccc(O)cc1)c1ccc(O)cc1 [BPA, 2,2-bis(4-hydroxyphenyl)propane]
thermal degradation of BPA ([1]; solution in acetone, storage at 35 °C): does not result in any substantial thermal degradation
